Data taken from patent US8138148B2, “GDNF derived peptides” (Copenhagen University, priority 2005, dated 2012).

Tested on: hippocampal neurons
Assay: Neurite outgrowth assay, co-cultures of hippocampal neurons on control fibroblasts or NCAM-expressing fibroblasts
Assay type: cell-based, rat
Details: 24 hours
Protocol: Two different versions of the neurite outgrowth assay were used in this study, monocultures and co-cultures.
In monocultures, neurons are grown directly on plastic and the only neuritogenic stimulus is the one presented by the added substance. In co-cultures, neurons are grown on top of a confluent monolayer of fibroblasts expressing NCAM-140 (LBN110) or NCAM-negative control fibroblasts (LVN212). NCAM on the neurons interact with NCAM on LBN110 cells thereby stimulating neurite outgrowth from the neurons. This system thus permits the study of NCAM-NCAM interactions and interactions between NCAM and other molecules.
For all experiments cells were grown in neurobasal medium with supplements as described above in a final volume of 300 μl/well in 8-well LabTek® Permanox Chamber slides or 500 μl/well in 4-well LabTek® Permanox Chamber slides.
For cocultures, L-cells were seeded in 8-well LabTek® Permanox Chamber slides at a density of 100.000 cells/well, except for transfection experiments where cells were seeded in 4-well LabTek® Permanox Chamber slides at a density of 200.000 cells/well. L-cells were grown for 24 hours in DMEM supplemented with 10% (v/v) FCS, 1% (v/v) glutamax, 100 U/ml penicillin, 100 μg/ml streptomycin, 2.5 μg/ml fungizone, and 567 μg/ml neomycin (G418), followed by washing twice in neurobasal medium with supplements before primary hippocampal neurons were seeded at a density of 7.000 cells/well in 8-well slides or 20.000 cells/well in 4-well slides.
To evaluate the effect peptides on neurite outgrowth, GDNF and the peptides, G1, G2, G3, A1, A2, A3, N1, N2 and N3 were diluted to the appropriate concentrations and added to the neurons approximately 10 minutes after seeding. Medium alone was added to controls, and cells were incubated for 24 hours.
Neurite outgrowth experiments were terminated after the stated time by fixating the cells. To visualize neurons and their neurites, immunostaining of GAP-43 was performed. This staining is specific for neurons. Transfected cells and their neurites should be visible without immunostaining due to the fluorescence emitted by GFP. […] GFP is a cytoplasmic protein, and since thin neurites only contain a small volume of cytoplasm, GFP is only found in small amounts in most neurites. Therefore, a double-staining protocol, where cells were immunostained against GFP and GAP-43, was adopted. This protocol allowed the identification of transfected cells on the basis of GFP-staining in combination with visualization of neurites based on GAP-43-staining.
Without prior removal of the medium 300 μl/well (8-well slides) or 500 μl/well (4-well slides) of a PBS solution containing 0.4 mM CaCl2, 0.05 M sucrose and 8% (v/v) formaldehyde was added to the cultures for 20 minutes. Cells were then washed 10 minutes in PBS followed by washing in PBS with 1% (w/v) BSA for 20 minutes, after which cells were incubated with primary antibodies overnight at 4° C.
Rabbit anti-rat GAP-43 antibodies were diluted 1:1000 for staining of untransfected cells and 1:2000 for staining of transfected cells. Mouse anti-GFP antibodies were diluted 1:1000. Antibodies were diluted in a PBS solution containing 7% (v/v) FCS to block unspecific binding, 50 mM glycine to block formaldehyde used for fixation, 0.2% (v/v) saponin to permeabilize cells, and 0.02% (v/v) NaN3 to preserve antibodies for later use.
The next day cells were washed 10 minutes in PBS followed by washing in PBS with 1% (w/v) BSA for 20 minutes. Cells were then incubated with secondary antibodies diluted in PBS with 1% (w/v) BSA for one hour at room temperature. Goat anti-rabbit IgG antibodies conjugated to Alexa 488 were diluted 1:1000 for untransfected cells and 1:2000 for transfected cells. Goat anti-mouse IgG antibodies conjugated to Alexa 546 were diluted 1:1000. Finally cells were washed 3×7 minutes in PBS and mounted with fluorescent mounting medium. […]

ETTYDKILKNLSRNR (listed as Homo sapiens) [G2, GDNF fragment]
neurite outgrowth, overall effect of treatment, neurons grown on NCAM-expressing fibroblasts (co-culture on NCAM-expressing fibroblasts, GDNF 1-100 ng/ml, peptides 0.1-81 μg/ml): overall significant effect
neurite outgrowth, overall effect of treatment, neurons grown on control fibroblasts (co-culture on control fibroblasts, GDNF 1-100 ng/ml, peptides 0.1-81 μg/ml): overall significant effect
difference between neurite outgrowth on control fibroblasts and on NCAM-expressing fibroblasts across concentrations (one-way ANOVA) (difference per concentration, expressed as percentage of control): mean differences are not all the same
